{"source": "patent US9155714B2", "about": "“Compositions comprising an aromatic alcohol and a TRPV-1 antagonist, and uses thereof” (JOHNSON & JOHNSON CONSUMER INC., priority 2013, dated 2015)", "type_in_all_cases": "cell-based", "key": {"[1]": {"target": "T1, human vanilloid receptor-1 (TRPV-1) (Homo sapiens, UniProt Q8NER1)", "T1 construct": "host or cells: HEK293", "T1 sequence (Q8NER1 whole entry)": "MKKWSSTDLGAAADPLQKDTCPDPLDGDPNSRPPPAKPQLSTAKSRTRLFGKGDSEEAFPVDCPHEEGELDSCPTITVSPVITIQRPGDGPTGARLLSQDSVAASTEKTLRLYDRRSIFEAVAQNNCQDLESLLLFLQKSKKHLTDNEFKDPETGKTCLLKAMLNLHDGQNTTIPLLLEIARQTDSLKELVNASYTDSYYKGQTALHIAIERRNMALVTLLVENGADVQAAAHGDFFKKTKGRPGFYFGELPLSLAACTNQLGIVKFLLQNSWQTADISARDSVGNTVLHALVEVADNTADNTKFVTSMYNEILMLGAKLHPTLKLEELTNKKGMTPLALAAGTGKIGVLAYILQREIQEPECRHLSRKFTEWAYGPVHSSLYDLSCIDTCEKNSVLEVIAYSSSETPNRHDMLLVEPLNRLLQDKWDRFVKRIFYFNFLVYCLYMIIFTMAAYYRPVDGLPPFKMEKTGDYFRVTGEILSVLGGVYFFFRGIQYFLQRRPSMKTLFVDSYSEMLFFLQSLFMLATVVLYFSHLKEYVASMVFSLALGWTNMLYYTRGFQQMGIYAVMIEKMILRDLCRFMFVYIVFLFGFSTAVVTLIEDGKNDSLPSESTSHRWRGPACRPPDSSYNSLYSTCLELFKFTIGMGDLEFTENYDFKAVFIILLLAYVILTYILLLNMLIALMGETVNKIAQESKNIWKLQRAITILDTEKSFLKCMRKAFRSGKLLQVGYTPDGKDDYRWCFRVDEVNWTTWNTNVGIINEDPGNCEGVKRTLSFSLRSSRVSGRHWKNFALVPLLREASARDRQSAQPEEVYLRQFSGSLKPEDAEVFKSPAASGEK", "experiment": "Calcium Flux Test, phenoxyethanol replaced with capsaicin (capsaicin-induced calcium flux)", "settings": "capsaicin 300 nM", "description": "(§1) The Calcium Flux Test is performed in the following manner: Recombinant HEK293 cells expressing human vanilloid receptor-1 (TRPV-1; accession number AF196175, EMD Millipore, Billerica, Mass.) are grown in D-MEM/F-12 media (Life Technologies, Grand Island, N.Y.) supplemented with 10% fetal bovine serum, 1% non essential amino acids and 400 μg/mL Geneticin (Gibco, Life Technologies). Cells are plated at a concentration of 15,000 cells per well on poly-D-lysine-coated 384 well plates and incubated overnight at 5% CO2 and 37° C. After incubation, culture media is removed from the wells and replaced with 50 μL per well of Fluo-8 No Wash dye solution (#36315, AAT Bioquest, Sunnyvale, Calif.). The Fluo-8 dye solution is prepared by mixing 20 uL of Fluo-8 NW with 30 mL of 0.33× Pluronic® F127 Plus (BASF of Ludwigshafen, Germany) in assay buffer (1×HBSS+2% of HEPES). Fluo-8 dye is incubated for 30 minutes at room temperature. Intracellular calcium (Ca^2+) flux is monitored upon exposure to aromatic alcohol in DMSO vehicle by measuring fluorescence intensity at Ex/Em 490/525 on a Functional Drug Screening System (FDSS; Hamamatsu, […]). Measurements are taken every second for a period of 4 minutes. […] Statistical differences are obtained using One Way ANOVA with Tukey Post-hoc test; statistical significance is defined as P≦0.05.\n(§2) The Maximum RFU obtained with a given concentration of aromatic alcohol is compared with the Maximum RFU obtained using the same concentration of aromatic alcohol but pretreated with the TRPV-1 antagonist for 5 minutes after dye incubation. Percent inhibition achieved with the TRPV-1 antagonist is calculated as: 100*((Maximum RFU of aromatic alcohol−Maximum RFU of aromatic alcohol pretreated with TRPV-1 antagonist)/Maximum RFU of aromatic alcohol).\n(§3) Capsazepine and AMG9810 were tested for activity as TRPV-1 antagonists using the Calcium Flux Test using two different concentrations of phenoxyethanol in DMSO. They were also tested using the Calcium Flux Test in which phenoxyethanol was replaced with capsaicin. […]"}, "[2]": {"target": "T1, human vanilloid receptor-1 (TRPV-1)", "experiment": "Calcium Flux Test, inhibition of phenoxyethanol-induced calcium flux", "settings": "for reducing phenoxyethanol-induced calcium flux (result in words): TRPV-1-expressing HEK293 cells", "description": "as §1, §2, §3"}, "[3]": {"target": "T1, human vanilloid receptor-1 (TRPV-1)", "experiment": "Calcium Flux Test, activity as TRPV-1 agonist", "description": "as §1\n(§4) Phenoxyethanol was tested at a series of concentrations in DMSO for activity as a TRPV-1 agonist according to the Calcium Flux Test described above. Capsaicin was used as a positive control.\n(§5) Maximum RFU values for treatment with phenoxyethanol or capsaisin were compared to the Maximum RFU for a DMSO vehicle alone. Concentrations of phenoxyethanol and capsaicin are reported in milimolar (mM) and nanomolar (nM), respectively.\n(§6) Benzyl alcohol and sodium bicarbonate were tested using the Calcium Flux Test.\n(§7) Benzyl alcohol and phenethyl alcohol were tested at a series of concentrations in DMSO for activity as a TRPV-1 agonist as described in Example 1. Concentrations of benzyl alcohol and phenethyl alcohol are reported in units of % w/v."}, "[4]": {"target": "T1, human vanilloid receptor-1 (TRPV-1)", "experiment": "Calcium Flux Test, activity as TRPV-1 agonist", "design": "key: **: Statistically significant; n/s: Not statistically significant", "description": "as §1, §4, §5, §6, §7"}, "[5]": {"settings": "compound 25 μM, phenoxyethanol 2 mM"}, "[6]": {"settings": "compound 25 μM, phenoxyethanol 3 mM"}, "[7]": {"settings": "compound 100 μM, phenoxyethanol 2 mM"}, "[8]": {"settings": "compound 100 μM, phenoxyethanol 3 mM"}}, "note": "Where “and” joins values, the source holds several entries; their conditions need not be identical. Identical values can stand only once."}
{"smiles": "C[C@]12CCC(=O)C=C1CC[C@@H]1[C@@H]2[C@@H](O)C[C@@]2(C)[C@H]1CC[C@]2(O)C(=O)CO", "note": "[Hydrocortisone, hydrocortisone]", "values": [{"measurement": "Maximum RFU (mean ± SD)", "setting": "[1]; compound 25 μM", "value": "950.97 ± 49.52", "unit": "RFU"}, {"measurement": "Maximum RFU (mean ± SD)", "setting": "[1]; compound 100 μM", "value": "963.83 ± 65.21", "unit": "RFU"}, {"measurement": "reducing phenoxyethanol-induced calcium flux (result in words)", "setting": "[2]", "value": "none of hydrocortisone, diphenhydramine or lidocaine were effective"}, {"measurement": "Maximum RFU (mean ± SD)", "setting": "[2]; [5]", "value": "171.65 ± 83.27", "unit": "RFU"}, {"measurement": "Maximum RFU (mean ± SD)", "setting": "[2]; [6]", "value": "309.90 ± 40.00", "unit": "RFU"}, {"measurement": "Maximum RFU (mean ± SD)", "setting": "[2]; [7]", "value": "160.66 ± 30.14", "unit": "RFU"}, {"measurement": "Maximum RFU (mean ± SD)", "setting": "[2]; [8]", "value": "225.19 ± 38.09", "unit": "RFU"}]}
{"smiles": "CCN(CC)CC(=O)Nc1c(C)cccc1C", "note": "[Lidocaine, lidocaine]", "values": [{"measurement": "reducing phenoxyethanol-induced calcium flux (result in words)", "setting": "[2]", "value": "none of hydrocortisone, diphenhydramine or lidocaine were effective"}, {"measurement": "Maximum RFU (mean ± SD)", "setting": "[2]; [5]", "value": "124.96 ± 22.24", "unit": "RFU"}, {"measurement": "Maximum RFU (mean ± SD)", "setting": "[2]; [6]", "value": "197.45 ± 41.14", "unit": "RFU"}, {"measurement": "Maximum RFU (mean ± SD)", "setting": "[2]; [7]", "value": "116.25 ± 25.92", "unit": "RFU"}, {"measurement": "Maximum RFU (mean ± SD)", "setting": "[2]; [8]", "value": "205.92 ± 16.97", "unit": "RFU"}]}
{"smiles": "OCCc1ccccc1", "note": "[Phenethyl Alcohol, phenethyl alcohol]", "values": [{"measurement": "intracellular calcium flux in TRPV-1-transfected HEK cells (result in words)", "setting": "[3]", "value": "dose dependent increases"}, {"measurement": "Maximum RFU", "setting": "[3]; phenethyl alcohol 0.000002 % w/v alone (no antagonist)", "value": "12.8 ± 1.35 RFU and 6.43 RFU and 12.28 ± 3.52 RFU"}, {"measurement": "Maximum RFU", "setting": "[3]; phenethyl alcohol 0.013 % w/v alone (no antagonist)", "value": "185.92 ± 28.6 RFU and 123.10 RFU and 200.02 ± 6.15 RFU"}, {"measurement": "Maximum RFU", "setting": "[3]; phenethyl alcohol 0.04 % w/v alone (no antagonist)", "value": "548.5 ± 37.22 RFU and 441.18 RFU and 470.23 ± 7.11 RFU"}, {"measurement": "Maximum RFU", "setting": "[3]; phenethyl alcohol 0.12 % w/v alone (no antagonist)", "value": "755.2 ± 12.89 RFU and 605.31 RFU and 580.44 ± 3.06 RFU"}]}
{"smiles": "OCCOc1ccccc1", "note": "[Phenoxyethanol, 2-phenoxy-1-ethanol]", "values": [{"measurement": "increase in Maximum RFU values compared to the vehicle alone", "setting": "[3]", "value": "thirty to forty-fold"}, {"measurement": "intracellular calcium flux in TRPV-1-transfected HEK cells (result in words)", "setting": "[3]", "value": "dose dependent increases"}, {"measurement": "Maximum RFU (mean ± SD)", "setting": "[3]; phenoxyethanol 0.5 mM alone", "value": "96.96 ± 61.20", "unit": "RFU"}, {"measurement": "Maximum RFU (mean ± SD)", "setting": "[3]; phenoxyethanol 0.75 mM alone", "value": "124.81 ± 37.58", "unit": "RFU"}, {"measurement": "Maximum RFU (mean ± SD)", "setting": "[3]; phenoxyethanol 1 mM alone", "value": "200.28 ± 76.93", "unit": "RFU"}, {"measurement": "Maximum RFU (mean ± SD)", "setting": "[3]; phenoxyethanol 1.5 mM alone", "value": "304.41 ± 70.10", "unit": "RFU"}, {"measurement": "Maximum RFU (mean ± SD)", "setting": "[3]; phenoxyethanol 2.5 mM alone", "value": "363.73 ± 44.11", "unit": "RFU"}, {"measurement": "Maximum RFU (mean ± SD)", "setting": "[3]; phenoxyethanol 3 mM alone", "value": "401.68 ± 26.58 RFU and 441.76 ± 36.68 RFU and 224.26 ± 42.60 RFU and 257.93 RFU"}, {"measurement": "Maximum RFU (mean ± SD)", "setting": "[3]; phenoxyethanol 3.5 mM alone", "value": "404.21 ± 42.32", "unit": "RFU"}, {"measurement": "Maximum RFU (mean ± SD)", "setting": "[3]; phenoxyethanol 4 mM alone", "value": "453.25 ± 34.18", "unit": "RFU"}, {"measurement": "P < 0.05 Compared to Vehicle", "setting": "[4]; phenoxyethanol 0.5 mM", "value": "n/s"}, {"measurement": "P < 0.05 Compared to Vehicle", "setting": "[4]; phenoxyethanol 0.75 mM", "value": "n/s"}, {"measurement": "P < 0.05 Compared to Vehicle", "setting": "[4]; phenoxyethanol 1 mM", "value": "**"}, {"measurement": "P < 0.05 Compared to Vehicle", "setting": "[4]; phenoxyethanol 1.5 mM", "value": "**"}, {"measurement": "P < 0.05 Compared to Vehicle", "setting": "[4]; phenoxyethanol 2 mM", "value": "**"}, {"measurement": "P < 0.05 Compared to Vehicle", "setting": "[4]; phenoxyethanol 2.5 mM", "value": "**"}, {"measurement": "P < 0.05 Compared to Vehicle", "setting": "[4]; phenoxyethanol 3 mM", "value": "**"}, {"measurement": "P < 0.05 Compared to Vehicle", "setting": "[4]; phenoxyethanol 3.5 mM", "value": "**"}, {"measurement": "P < 0.05 Compared to Vehicle", "setting": "[4]; phenoxyethanol 4 mM", "value": "**"}]}
